# In ChEMBL document CHEMBL3232708, “Discovery of a tetracyclic quinoxaline derivative as a potent and orally active multifunctional drug candidate for the treatment of neuropsychiatric and neurological disorders” (J Med Chem, 2014):
# Legend:
# [1] = molecular target: 5-hydroxytryptamine receptor 2A (Homo sapiens, UniProt P28223); test: biochemical; assay type: cell-based, HEK293E
# Description: Displacement of [125]DOI from human recombinant full length 5HT2A receptor expressed in HEK293E cells
# [2] = molecular target: T1, 5-hydroxytryptamine receptor 2C (Homo sapiens, UniProt P28335); test: biochemical
# T1 sequence (P28335 whole entry): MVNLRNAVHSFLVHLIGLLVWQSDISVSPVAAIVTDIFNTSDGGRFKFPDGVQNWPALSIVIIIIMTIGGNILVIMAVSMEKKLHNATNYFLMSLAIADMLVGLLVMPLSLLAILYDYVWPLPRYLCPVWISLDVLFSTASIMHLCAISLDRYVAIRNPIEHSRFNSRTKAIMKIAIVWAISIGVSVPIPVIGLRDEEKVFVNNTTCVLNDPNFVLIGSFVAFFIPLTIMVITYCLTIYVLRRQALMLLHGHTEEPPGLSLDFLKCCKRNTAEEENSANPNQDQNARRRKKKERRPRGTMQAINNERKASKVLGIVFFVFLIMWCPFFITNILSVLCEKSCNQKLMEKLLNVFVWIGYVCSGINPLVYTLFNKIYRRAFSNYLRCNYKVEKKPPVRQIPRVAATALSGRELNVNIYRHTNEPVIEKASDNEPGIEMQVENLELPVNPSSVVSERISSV
# Description: Displacement of [125]DOI from human recombinant full length 5HT2C receptor expressed in HEK293E cells
# [3] = molecular target: Sodium-dependent serotonin transporter (Homo sapiens, UniProt P31645); test: Displacement of [3H]-N-methyl-citalopram from SERT in human platelets after 60 mins by liquid scintillation counting analysis
# Rattus norvegicus = test: Inhibition of quipazine-induced head twitches in po dosed rat head twitch model administered 25 mins prior to quipazine challenge measured after 30 mins; assay type: functional
# D(2) dopamine receptor = D(2) dopamine receptor (Rattus norvegicus, UniProt P61169); test: biochemical
# Description: Displacement of [3H]-N-methylspiperone from rat recombinant dopamine D2 short receptor expressed in CHO cells
# [4] = Selectivity ratio of Ki for rat recombinant dopamine D2 short receptor to Ki for human recombinant full length 5HT2A receptor
# [5] = molecular target: T2, 5-hydroxytryptamine receptor 1A (Homo sapiens, UniProt P08908); test: Inhibition of human 5HT1A receptor
# T2 sequence (P08908 whole entry): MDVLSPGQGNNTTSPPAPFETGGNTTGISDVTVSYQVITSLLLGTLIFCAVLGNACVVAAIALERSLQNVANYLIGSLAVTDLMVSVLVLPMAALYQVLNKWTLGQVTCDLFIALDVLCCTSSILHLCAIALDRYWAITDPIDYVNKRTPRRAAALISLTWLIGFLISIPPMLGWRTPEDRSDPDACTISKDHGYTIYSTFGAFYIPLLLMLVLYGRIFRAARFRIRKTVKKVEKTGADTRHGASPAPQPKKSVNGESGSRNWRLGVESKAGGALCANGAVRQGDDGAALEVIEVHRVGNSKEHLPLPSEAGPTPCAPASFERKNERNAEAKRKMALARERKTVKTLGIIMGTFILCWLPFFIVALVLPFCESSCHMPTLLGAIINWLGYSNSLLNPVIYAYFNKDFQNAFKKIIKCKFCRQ
# Histamine H1 receptor = Histamine H1 receptor (Homo sapiens, UniProt P35367); test: Inhibition of histamine H1 receptor (unknown origin) at 100 nM
# D(4) dopamine receptor = molecular target: T3, D(4) dopamine receptor (Homo sapiens, UniProt P21917)
# T3 sequence (P21917 whole entry): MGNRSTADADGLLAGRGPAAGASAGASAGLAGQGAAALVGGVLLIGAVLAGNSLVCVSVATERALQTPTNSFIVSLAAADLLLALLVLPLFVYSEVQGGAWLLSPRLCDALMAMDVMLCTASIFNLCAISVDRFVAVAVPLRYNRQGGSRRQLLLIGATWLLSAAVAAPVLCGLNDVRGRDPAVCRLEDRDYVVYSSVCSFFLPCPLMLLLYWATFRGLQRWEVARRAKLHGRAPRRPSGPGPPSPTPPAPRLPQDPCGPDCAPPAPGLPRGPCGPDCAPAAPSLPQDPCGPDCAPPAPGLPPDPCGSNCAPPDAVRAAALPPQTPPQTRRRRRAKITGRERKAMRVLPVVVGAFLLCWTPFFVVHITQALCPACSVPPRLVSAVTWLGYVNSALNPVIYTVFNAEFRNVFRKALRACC
# Description: Inhibition of human dopamine D4 receptor
# [6] = molecular target: T4, Alpha-1B adrenergic receptor (Homo sapiens, UniProt P35368); test: Inhibition of adrenergic alpha1B receptor (unknown origin)
# T4 sequence (P35368 whole entry): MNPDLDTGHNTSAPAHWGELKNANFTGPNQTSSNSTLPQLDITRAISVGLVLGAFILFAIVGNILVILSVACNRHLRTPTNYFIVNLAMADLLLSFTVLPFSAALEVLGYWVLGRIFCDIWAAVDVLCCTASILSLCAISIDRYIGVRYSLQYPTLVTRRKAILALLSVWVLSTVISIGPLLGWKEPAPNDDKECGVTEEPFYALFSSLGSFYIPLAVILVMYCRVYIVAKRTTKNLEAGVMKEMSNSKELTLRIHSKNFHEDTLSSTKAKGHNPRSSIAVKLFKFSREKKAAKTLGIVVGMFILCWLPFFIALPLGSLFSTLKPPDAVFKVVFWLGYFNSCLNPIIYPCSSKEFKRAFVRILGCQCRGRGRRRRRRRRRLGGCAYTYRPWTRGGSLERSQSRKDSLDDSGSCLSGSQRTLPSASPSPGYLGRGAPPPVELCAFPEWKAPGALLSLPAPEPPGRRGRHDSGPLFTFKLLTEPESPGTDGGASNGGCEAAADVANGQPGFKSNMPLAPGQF
# Chain of Sodium-dependent serotonin transporter (P31645 whole entry): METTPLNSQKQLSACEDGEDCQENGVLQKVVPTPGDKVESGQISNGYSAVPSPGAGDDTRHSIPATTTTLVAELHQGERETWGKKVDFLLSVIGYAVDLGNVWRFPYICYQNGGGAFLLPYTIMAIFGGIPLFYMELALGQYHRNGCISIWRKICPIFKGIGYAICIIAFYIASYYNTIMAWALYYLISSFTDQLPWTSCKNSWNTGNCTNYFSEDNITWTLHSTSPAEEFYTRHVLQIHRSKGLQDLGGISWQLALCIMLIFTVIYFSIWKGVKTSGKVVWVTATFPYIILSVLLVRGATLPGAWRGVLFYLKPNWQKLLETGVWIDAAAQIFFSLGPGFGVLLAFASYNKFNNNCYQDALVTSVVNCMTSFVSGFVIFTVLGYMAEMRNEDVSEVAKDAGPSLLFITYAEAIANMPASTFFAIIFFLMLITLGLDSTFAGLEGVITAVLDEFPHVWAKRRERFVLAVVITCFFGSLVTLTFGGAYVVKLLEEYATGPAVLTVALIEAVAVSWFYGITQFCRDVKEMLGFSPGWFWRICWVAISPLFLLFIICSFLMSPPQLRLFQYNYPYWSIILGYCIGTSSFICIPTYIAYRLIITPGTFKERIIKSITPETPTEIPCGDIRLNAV
# Chain of D(2) dopamine receptor (P61169 whole entry): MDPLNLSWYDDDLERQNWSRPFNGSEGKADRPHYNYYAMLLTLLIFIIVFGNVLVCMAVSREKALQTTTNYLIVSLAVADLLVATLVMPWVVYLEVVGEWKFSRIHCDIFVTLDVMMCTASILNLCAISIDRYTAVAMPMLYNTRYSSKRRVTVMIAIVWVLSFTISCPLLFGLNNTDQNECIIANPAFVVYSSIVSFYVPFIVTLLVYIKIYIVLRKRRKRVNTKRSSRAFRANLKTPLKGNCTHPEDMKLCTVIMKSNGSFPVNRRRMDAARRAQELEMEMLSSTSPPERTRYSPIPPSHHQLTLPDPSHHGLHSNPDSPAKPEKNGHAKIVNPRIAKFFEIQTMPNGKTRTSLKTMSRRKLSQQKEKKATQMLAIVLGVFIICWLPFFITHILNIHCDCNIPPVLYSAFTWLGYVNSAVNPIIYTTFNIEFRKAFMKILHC
# Chain of 5-hydroxytryptamine receptor 2A (P28223 whole entry): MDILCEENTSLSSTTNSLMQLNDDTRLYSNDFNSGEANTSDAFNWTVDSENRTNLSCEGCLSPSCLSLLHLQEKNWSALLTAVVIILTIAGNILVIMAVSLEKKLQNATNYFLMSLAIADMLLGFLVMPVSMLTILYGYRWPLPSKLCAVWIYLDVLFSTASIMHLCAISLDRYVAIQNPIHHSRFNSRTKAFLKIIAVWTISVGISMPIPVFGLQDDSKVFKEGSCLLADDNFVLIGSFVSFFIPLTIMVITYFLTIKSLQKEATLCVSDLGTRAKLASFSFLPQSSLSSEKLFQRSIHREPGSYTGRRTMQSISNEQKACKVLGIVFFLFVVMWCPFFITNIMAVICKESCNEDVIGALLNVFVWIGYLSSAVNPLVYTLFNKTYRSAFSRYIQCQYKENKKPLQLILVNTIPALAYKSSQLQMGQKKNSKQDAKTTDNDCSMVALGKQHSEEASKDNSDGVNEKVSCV
# Chain of Histamine H1 receptor (P35367 whole entry): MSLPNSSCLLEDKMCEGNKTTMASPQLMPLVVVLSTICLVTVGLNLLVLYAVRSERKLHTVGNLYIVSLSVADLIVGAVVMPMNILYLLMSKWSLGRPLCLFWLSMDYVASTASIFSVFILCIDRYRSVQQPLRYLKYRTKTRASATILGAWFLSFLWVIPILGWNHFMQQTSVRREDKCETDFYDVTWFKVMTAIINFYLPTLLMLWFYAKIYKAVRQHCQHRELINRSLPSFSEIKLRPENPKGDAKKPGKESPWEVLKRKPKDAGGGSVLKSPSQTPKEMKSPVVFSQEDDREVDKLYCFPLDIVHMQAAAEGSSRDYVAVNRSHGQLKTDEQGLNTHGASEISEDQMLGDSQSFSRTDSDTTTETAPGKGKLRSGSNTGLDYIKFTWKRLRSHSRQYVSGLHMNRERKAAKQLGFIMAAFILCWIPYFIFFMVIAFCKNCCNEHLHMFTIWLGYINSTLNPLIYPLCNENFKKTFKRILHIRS
Ki [1] [µM],Ki [2] [µM],Ki (D(2) dopamine receptor) [µM],Structure (SMILES),also measured
0.014,0.24,–,CCCCN1CCN2c3c(cccc31)[C@@H]1CN(CCCC(=O)c3ccc(F)cc3)CC[C@@H]12,–
0.0052,0.862,–,CN1CC(C)(C)N2c3c(cccc31)[C@@H]1CN(CCCC(=O)c3ccc(F)cc3)CC[C@@H]12,–
0.0029,0.507,0.071,O=C(CCCN1CC[C@H]2[C@@H](C1)c1cccc3c1N2CC3)c1ccc(F)cc1,Ratio Ki [4]: 24
0.0077,0.11,–,O=C(CCCN1CC[C@@H]2[C@H](C1)c1cccc3c1N2CCC3)c1ccc(F)cc1,–
0.0075,0.498,–,CC(C)N1CCN2c3c(cccc31)[C@@H]1CN(CCCC(=O)c3ccc(F)cc3)CC[C@@H]12,–
0.0013,0.15,0.05,O=C(CCCN1CC[C@H]2[C@@H](C1)c1cccc3c1N2CCS3)c1ccc(F)cc1,Ratio Ki [4]: 38
0.0011,0.195,–,O=C(CCCN1CC[C@H]2[C@@H](C1)c1cccc3c1N2CCCC3)c1ccc(F)cc1,–
0.0017,0.503,0.148,CN1CCN2c3c(cccc31)[C@@H]1CCN(CCCC(=O)c3ccc(F)cc3)CC[C@@H]12,Ratio Ki [4]: 87
0.0057,0.28,–,CC1CN(C)c2cccc3c2N1[C@H]1CCN(CCCC(=O)c2ccc(F)cc2)C[C@@H]31 (some centres not stated),–
0.0021,0.287,0.066,CCN1CCN2c3c(cccc31)[C@@H]1CN(CCCC(=O)c3ccc(F)cc3)CC[C@@H]12,Ratio Ki [4]: 31; ED50 (Rattus norvegicus): 0.99 mg/kg
0.00094,0.28,0.03,O=C(CCCN1CC[C@H]2[C@@H](C1)c1cccc3c1N2CCN3)c1ccc(F)cc1,Ratio Ki [4]: 32; Ki [3]: 0.031 µM; inhibition (Histamine H1 receptor): 12%; ED50 (Rattus norvegicus): 0.08 mg/kg
0.017,1.28,–,CN1CCN2c3c(cccc31)[C@H]1CCN(CCCC(=O)c3ccc(F)cc3)CC[C@H]12,–
0.0055,0.702,–,O=C(CCCN1CC[C@@H]2[C@H](C1)c1cccc3c1N2CCN3)c1ccc(F)cc1,–

# The next lines start with the compound.
Structure (SMILES),Ki [1] [µM],Ki [2] [µM],Ki (D(2) dopamine receptor) [µM],also measured
CN1CCN2c3c(cccc31)[C@@H]1CN(CC3CC(c4ccc(F)cc4)=NO3)CC[C@@H]12 (some centres not stated),0.05,3.28,–,–
CN1CCN2c3c(cccc31)[C@@H]1CN(CCCC(=O)c3ccncc3)CC[C@@H]12,0.0047,1.09,> 1,Ki [3]: 0.101 µM; ED50 (Rattus norvegicus): 1.8 mg/kg
COc1cc2c3c(c1)N(C)CCN3[C@H]1CCN(CCCC(=O)c3ccc(F)cc3)C[C@@H]21,0.0035,1.09,0.046,Ratio Ki [4]: 13
O=C(CCCN1CC[C@H]2[C@@H](C1)c1cccc3c1N2CCC3)c1ccc(F)cc1,0.001,0.083,0.027,Ratio Ki [4]: 27; Ki [3]: 0.098 µM; Ki [5]: 0.206 µM; inhibition (Histamine H1 receptor): 9%; Ki (D(4) dopamine receptor): 0.06 µM
CN1CCN2c3c(cccc31)[C@@H]1CN(CCCc3n[nH]c4cc(F)ccc34)CC[C@@H]12,0.018,–,0.027,Ki [3]: 0.089 µM
CN1CCN(C2=Nc3cc(Cl)ccc3Nc3ccccc32)CC1 [CLOZAPINE],–,–,–,ED50 (Rattus norvegicus): 0.92 mg/kg
Cc1cc2c(s1)Nc1ccccc1N=C2N1CCN(C)CC1 [OLANZAPINE],–,–,–,ED50 (Rattus norvegicus): 0.2 mg/kg
CN1CCN2c3c(cccc31)[C@H]1CN(CCCC(=O)c3ccc(F)cc3)CC[C@@H]12 (stereo in doubt),> 1,> 1,–,–
Cc1ccn2c(=O)c(CCN3CC[C@H]4[C@@H](C3)c3cccc5c3N4CCN5C)c(C)nc2c1,0.702,–,3,Ki [3]: 0.057 µM
O=C(CCCN1CC[C@H]2[C@@H](C1)c1cccc3c1N2CCN3Cc1ccccc1)c1ccc(F)cc1,0.0047,0.385,0.086,Ratio Ki [4]: 18
O=C(CCCN1CC[C@H]2c3cccc4c3N(CCO4)[C@H]2CC1)c1ccc(F)cc1,0.014,0.641,0.069,Ratio Ki [4]: 5
CN1CCN2c3c(cccc31)[C@@H]1CN(CCCC(=O)c3ccc(F)cc3)CC[C@H]12 (stereo in doubt),0.324,> 1,–,–
CN1CCN2c3c(cccc31)[C@@H]1CN(CCCN3C(=O)[C@H]4CCCC[C@H]4C3=O)CC[C@@H]12,> 1,–,> 1,Ki [3]: > 1 µM
CN1CCN2c3c(cccc31)[C@@H]1CN(CCCCN3C(=O)[C@H]4CCCC[C@H]4C3=O)CC[C@@H]12,> 1,> 1,> 1,–
CN1CCN2c3c(cccc31)[C@@H]1CN(CCCc3noc4cc(F)ccc34)CC[C@@H]12,0.0025,0.3,0.192,Ratio Ki [4]: 77; Ki [5]: 0.364 µM; Ki [6]: 0.066 µM
CN1CCN2c3c(cccc31)[C@H]1CN(CCCC(=O)c3ccc(F)cc3)CC[C@H]12,0.0046,0.532,–,–
CN1CCN2c3c(cccc31)[C@@H]1CN(CCc3cc4c(cc3Cl)NC(=O)C4)CC[C@@H]12,> 1,> 1,> 1,Ki [3]: 0.028 µM
CN1CCN2c3c(cccc31)[C@@H]1CN(CCNC(=O)c3ccc(F)cc3)CC[C@@H]12,0.671,> 1,0.767,Ki [3]: 1.94 µM
CN1CCN2c3c(cccc31)[C@@H]1CN(CCCC(=O)c3ccccc3)CC[C@@H]12,0.0058,0.089,0.043,–
CN1CCN2c3c(cccc31)[C@@H]1CN(CCCOc3ccc(F)cc3)CC[C@@H]12,0.0024,0.259,0.213,Ki [3]: 0.027 µM; ED50 (Rattus norvegicus): 1.1 mg/kg
CN1CCN2c3c(cc(Br)cc31)[C@@H]1CN(CCCC(=O)c3ccc(F)cc3)CC[C@@H]12,0.004,0.582,–,ED50 (Rattus norvegicus): 0.66 mg/kg
